In the supplement of paper PMC11451515:

Assays:
Conditions in all cases: 48 h
P12-Ichikawa [1] = experiment: cell viability relative to DMSO control; higher = less cytotoxic
Outline: (§1)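 Viability is a per-plate percentage relative to DMSO wells, with cell-free wells as background. CellTiter-Glo One luminescence was read after 48 h at 37°C on 1536-well plates (5 μl) of NOMO1 or SEM (500 cells/well) or P12-Ichikawa (1000 cells/well) leukemia cells. The cells had been adapted for at least four passages in each medium and pin-dosed with library compounds in DMSO from 47 μM to 0.79 nM in 11 threefold steps.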

SEM cells [2] = experiment: as above
Outline: as §1

NOMO1 [3] = experiment: as above
Outline: as §1

P12-Ichikawa [4] = experiment: AUC of viability dose-response curve (% viability x log10 dose units); higher = less sensitive
Outline: (§2)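 Over 48 h at 37°C, leukemia cells in 1536-well plates (500 or 1000 cells/well), adapted to each medium, received library compounds in DMSO at 11 threefold doses from 47 μM to 0.79 nM. CellTiter-Glo One luminescence, normalised per plate to DMSO and cell-free wells, was fitted by a four-parameter log-logistic function of log10 dose. The area under the curve was then integrated by trapezoidal rule, after scaling curves above full viability and removing those that failed quality control.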

NOMO1 [5] = experiment: as above
Outline: as §2

SEM cells [6] = experiment: as above
Outline: as §2

NNC(=O)c1ccncc1
cell viability [%]
Conditions | NOMO1 [3] | P12-Ichikawa [1] | SEM cells [2]
HPLM + 10% dialyzed FBS, 0.000781 µM | 90.3 | 111 | 84.6
HPLM + 10% dialyzed FBS, 0.00234 µM | 99.2 | 124 | 79.5
HPLM + 10% dialyzed FBS, 0.00702 µM | 117 | 119 | 73.6
HPLM + 10% dialyzed FBS, 0.0211 µM | 123 | 121 | 92.9
HPLM + 10% dialyzed FBS, 0.0632 µM | 121 | 121 | 93.8
HPLM + 10% dialyzed FBS, 0.19 µM | 124 | 127 | 86.6
HPLM + 10% dialyzed FBS, 0.569 µM | 125 | 127 | 29.2
HPLM + 10% dialyzed FBS, 1.71 µM | 123 | 117 | 42.5
HPLM + 10% dialyzed FBS, 5.12 µM | 137 | 101 | 95.7
HPLM + 10% dialyzed FBS, 15.4 µM | 131 | 103 | 92.3
HPLM + 10% dialyzed FBS, 46.1 µM | 123 | 85.7 | 82.4
RPMI 5 mM glucose + 10% FBS, 0.000781 µM | 108 | 106 | 107
RPMI 5 mM glucose + 10% FBS, 0.00234 µM | 111 | 107 | 98.6
RPMI 5 mM glucose + 10% FBS, 0.00702 µM | 114 | 111 | 97.2
RPMI 5 mM glucose + 10% FBS, 0.0211 µM | 109 | 124 | 98.7
RPMI 5 mM glucose + 10% FBS, 0.0632 µM | 122 | 111 | 116
RPMI 5 mM glucose + 10% FBS, 0.19 µM | 135 | 114 | 115
RPMI 5 mM glucose + 10% FBS, 0.569 µM | 123 | 122 | 37.3
RPMI 5 mM glucose + 10% FBS, 1.71 µM | 115 | 120 | 46.7
RPMI 5 mM glucose + 10% FBS, 5.12 µM | 128 | 116 | 91.6
RPMI 5 mM glucose + 10% FBS, 15.4 µM | 119 | 107 | 94.9
RPMI 5 mM glucose + 10% FBS, 46.1 µM | 130 | 84.7 | 87.6
RPMI 5 mM glucose + 10% dialyzed FBS, 0.000781 µM | 120 | 115 | 107
RPMI 5 mM glucose + 10% dialyzed FBS, 0.00234 µM | 117 | 122 | 110
RPMI 5 mM glucose + 10% dialyzed FBS, 0.00702 µM | 110 | 113 | 92.4
RPMI 5 mM glucose + 10% dialyzed FBS, 0.0211 µM | 117 | 119 | 97.2
RPMI 5 mM glucose + 10% dialyzed FBS, 0.0632 µM | 119 | 116 | 98.1
RPMI 5 mM glucose + 10% dialyzed FBS, 0.19 µM | 118 | 127 | 105
RPMI 5 mM glucose + 10% dialyzed FBS, 0.569 µM | 119 | 118 | 37.2
RPMI 5 mM glucose + 10% dialyzed FBS, 1.71 µM | 126 | 121 | 34.9
RPMI 5 mM glucose + 10% dialyzed FBS, 5.12 µM | 124 | 103 | 101
RPMI 5 mM glucose + 10% dialyzed FBS, 15.4 µM | 126 | 108 | 95.6
RPMI 5 mM glucose + 10% dialyzed FBS, 46.1 µM | 125 | 76.2 | 82.8

AUC of viability dose-response curve
Conditions | HPLM + 10% dialyzed FBS | RPMI 5 mM glucose + 10% FBS | RPMI 5 mM glucose + 10% dialyzed FBS
NOMO1 [5] | 454 | 444 | 456
P12-Ichikawa [4] | 453 | 468 | 460

Cc1cccc(Nc2nc(N[C@@H]3CCCC[C@@H]3N)ncc2C(N)=O)c1
cell viability [%]
Conditions | NOMO1 [3] | P12-Ichikawa [1] | SEM cells [2]
HPLM + 10% dialyzed FBS, 0.000781 µM | 119 | 110 | 109
HPLM + 10% dialyzed FBS, 0.00234 µM | 109 | 113 | 107
HPLM + 10% dialyzed FBS, 0.00702 µM | 119 | 121 | 112
HPLM + 10% dialyzed FBS, 0.0211 µM | 115 | 117 | 104
HPLM + 10% dialyzed FBS, 0.0632 µM | 115 | 119 | 107
HPLM + 10% dialyzed FBS, 0.19 µM | 126 | 116 | 118
HPLM + 10% dialyzed FBS, 0.569 µM | 110 | 114 | 114
HPLM + 10% dialyzed FBS, 1.71 µM | 80.9 | 30.9 | 88.6
HPLM + 10% dialyzed FBS, 5.12 µM | 77.4 | 11 | 44
HPLM + 10% dialyzed FBS, 15.4 µM | 85.5 | 10.8 | 30.9
HPLM + 10% dialyzed FBS, 46.1 µM | 83 | 14.5 | 32.3
RPMI 5 mM glucose + 10% FBS, 0.000781 µM | 96.1 | 120 | 66.2
RPMI 5 mM glucose + 10% FBS, 0.00234 µM | 106 | 107 | 80.1
RPMI 5 mM glucose + 10% FBS, 0.00702 µM | 114 | 110 | 78
RPMI 5 mM glucose + 10% FBS, 0.0211 µM | 117 | 102 | 79.7
RPMI 5 mM glucose + 10% FBS, 0.0632 µM | 129 | 117 | 69.8
RPMI 5 mM glucose + 10% FBS, 0.19 µM | 109 | 97.9 | 89.4
RPMI 5 mM glucose + 10% FBS, 0.569 µM | 113 | 107 | 87.1
RPMI 5 mM glucose + 10% FBS, 1.71 µM | 99.1 | 103 | 74.2
RPMI 5 mM glucose + 10% FBS, 5.12 µM | 58.7 | 35.1 | 33.8
RPMI 5 mM glucose + 10% FBS, 15.4 µM | 56 | 13.7 | 11.5
RPMI 5 mM glucose + 10% FBS, 46.1 µM | 51.5 | 14.7 | 14.5
RPMI 5 mM glucose + 10% dialyzed FBS, 0.000781 µM | 101 | 103 | 95.7
RPMI 5 mM glucose + 10% dialyzed FBS, 0.00234 µM | 99.2 | 108 | 126
RPMI 5 mM glucose + 10% dialyzed FBS, 0.00702 µM | 109 | 123 | 104
RPMI 5 mM glucose + 10% dialyzed FBS, 0.0211 µM | 107 | 123 | 112
RPMI 5 mM glucose + 10% dialyzed FBS, 0.0632 µM | 119 | 121 | 103
RPMI 5 mM glucose + 10% dialyzed FBS, 0.19 µM | 115 | 127 | 114
RPMI 5 mM glucose + 10% dialyzed FBS, 0.569 µM | 108 | 125 | 96.2
RPMI 5 mM glucose + 10% dialyzed FBS, 1.71 µM | 82.4 | 80.5 | 81.1
RPMI 5 mM glucose + 10% dialyzed FBS, 5.12 µM | 55.5 | 24.3 | 25.6
RPMI 5 mM glucose + 10% dialyzed FBS, 15.4 µM | 58.6 | 23.3 | 23.3
RPMI 5 mM glucose + 10% dialyzed FBS, 46.1 µM | 56.8 | 27.5 | 25

AUC of viability dose-response curve
Conditions | HPLM + 10% dialyzed FBS | RPMI 5 mM glucose + 10% FBS | RPMI 5 mM glucose + 10% dialyzed FBS
NOMO1 [5] | 424 | 411 | 409
P12-Ichikawa [4] | 334 | 380 | 368

Clc1ccc2c(N3CCN(CCCN4CCN(c5ccnc6cc(Cl)ccc56)CC4)CC3)ccnc2c1
cell viability [%], SEM cells [2]
Conditions | HPLM + 10% dialyzed FBS | RPMI 5 mM glucose + 10% dialyzed FBS
0.000781 µM | 96.6 | 118
0.00234 µM | 111 | 131
0.00702 µM | 125 | 112
0.0211 µM | 102 | 120
0.0632 µM | 120 | 119
0.19 µM | 120 | 128
0.569 µM | 135 | 134
1.71 µM | 130 | 146
5.12 µM | 133 | 130
15.4 µM | 102 | 109
46.1 µM | 84.5 | 69.9

AUC of viability dose-response curve
Conditions | NOMO1 [5] | P12-Ichikawa [4] | SEM cells [6]
HPLM + 10% dialyzed FBS | 469 | 456 | 464
RPMI 5 mM glucose + 10% FBS | 457 | 448 | 459
RPMI 5 mM glucose + 10% dialyzed FBS | 465 | 442 | 459
